According to patent US10280184B2, “Heterocyclic kinase inhibitors” (AbbVie Inc., priority 2014, dated 2019):
Structures can show the parent of a compound that is named as a salt.

Each compound was assayed against CSF-1R (Homo sapiens (Human), UniProt P07333) (assay: In vitro CSF-1R kinase activity measured by trFRET). Conditions: recombinant human catalytic domain (aa 538-910), 0.1 mM ATP; read-out: CSF-1R enzyme IC50.
Sequence of CSF-1R (P07333 538-910): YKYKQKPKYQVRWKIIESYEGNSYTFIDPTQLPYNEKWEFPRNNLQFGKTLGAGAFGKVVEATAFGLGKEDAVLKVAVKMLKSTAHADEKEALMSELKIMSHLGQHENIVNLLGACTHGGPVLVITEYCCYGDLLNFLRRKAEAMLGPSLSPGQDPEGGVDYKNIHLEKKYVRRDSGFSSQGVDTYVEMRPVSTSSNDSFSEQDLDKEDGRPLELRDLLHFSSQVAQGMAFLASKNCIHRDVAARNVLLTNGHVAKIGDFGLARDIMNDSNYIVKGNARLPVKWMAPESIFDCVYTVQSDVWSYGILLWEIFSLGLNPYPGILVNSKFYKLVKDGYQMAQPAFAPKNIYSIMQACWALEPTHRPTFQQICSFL
Type: biochemical
Method: In Vitro CSF-1R Kinase Activity Measured by Time-Resolved Fluorescence Resonance Energy Transfer (trFRET)
(§1) The CSF-1R construct corresponds to recombinant human catalytic domain (aa 538-910), which was purchased from Invitrogen (cat #PV4092). CSF-1R was mixed with peptide substrate (biotin-TYR1, Sequence: Biotin-(Ahx)-GAEEEIYAAFFA-COOH, 4 μM final) at varying inhibitor concentrations in reaction buffer: 50 mM MOPSO pH 6.5, 10 mM MgCl2, 2 mM MnCl2, 2.5 mM DTI, 0.01% BSA, 0.1 mM Na3VO4 and 0.1 mM ATP. After about 60 min incubation at rt, the reaction was quenched by addition of EDTA (final concentration: 100 mM) and developed by addition of detection reagents (final approximate concentrations: 30 mM HEPES pH 7.0, 0.06% BSA, 0.006% Tween-20, 0.24 M KF, 80 ng/mL PT66K (europium labeled anti-phosphotyrosine antibody cat #61T66KLB Cisbio, Bedford, Mass.) and 0.6 μg/mL SAXL (Phycolink streptavidin-allophycocyanin acceptor, cat #PJ25S, Prozyme, San Leandro, Calif.). The developed reaction was incubated in the dark for about 60 min at rt, then read via a time-resolved fluorescence detector (Rubystar, BMG) using a 337 nm laser for excitation and monitoring emission wavelength at 665 nm. Within the linear range of the assay, the observed signal at 665 nm was directly related to phosphorylated product and can be used to calculate the IC50 values.
For `Cn1cc(Nc2nc(C3CCCC3)cn3ncnc23)cn1` [E.1.8, 6-cyclopentyl-N-(1-methyl-1H-pyrazol-4-yl)-[1,2,4]triazolo[1,5-a]pyrazin-8-amine], the IC50 was < 100 nM.
With `CCOC(=O)[C@H]1CC[C@@H](n2cc(Nc3nc(C4CCCCC4)cn4ncnc34)cn2)CC1` [A.1.8, cis-ethyl 4-(4-((6-cyclohexyl-[1,2,4]triazolo[1,5-a]pyrazin-8-yl)amino)-1H-pyrazol-1-yl)cyclohexanecarboxylate] the IC50 was < 100 nM.
For `Cn1cc(Nc2nc(C3CCC(C)(C)CC3)cn3ncnc23)cn1` [E.1.2, 6-(4,4-dimethylcyclohexyl)-N-(1-methyl-1H-pyrazol-4-yl)-[1,2,4]triazolo[1,5-a]pyrazin-8-amine], the IC50 was < 100 nM.
With `c1nc2c(Nc3cn[nH]c3)nc(C3CCCCC3)cn2n1` [A.1.7, 6-cyclohexyl-N-(1H-pyrazol-4-yl)-[1,2,4]triazolo[1,5-a]pyrazin-8-amine] the IC50 was < 100 nM.
For `c1nc2c(Nc3cnn(C4CCNCC4)c3)nc(C3CCCCC3)cn2n1` [D.1.1, 6-cyclohexyl-N-(1-(piperidin-4-yl)-1H-pyrazol-4-yl)-[1,2,4]triazolo[1,5-a]pyrazin-8-amine], the IC50 was < 100 nM.
`CC(C)(O)CCn1cc(Nc2nc(C3CCCCC3)cn3ncnc23)cn1` [A.1.1, 4-(4-((6-cyclohexyl-[1,2,4]triazolo[1,5-a]pyrazin-8-yl)amino)-1H-pyrazol-1-yl)-2-methylbutan-2-ol] was tested, and the IC50 was < 100 nM.
With `OCCCn1cc(Nc2nc(C3CCCCC3)cn3ncnc23)cn1` [Example 15, 3-(4-((6-cyclohexyl-[1,2,4]triazolo[1,5-a]pyrazin-8-yl)amino)-1H-pyrazol-1-yl)propan-1-ol] the IC50 was < 100 nM.
In the case of `CN1CCn2nc(Nc3cc(C4CCCC4)cn4ncnc34)cc2C1` [E.1.9, 6-cyclopentyl-N-(5-methyl-4,5,6,7-tetrahydropyrazolo[1,5-a]pyrazin-2-yl)-[1,2,4]triazolo[1,5-a]pyridin-8-amine], the IC50 is reported as < 100 nM.
`c1nc2c(Nc3cc4n(n3)CCOC4)cc(C3CCCCC3)cn2n1` [E.1.6, N-(6-cyclohexyl-[1,2,4]triazolo[1,5-a]pyridin-8-yl)-6,7-dihydro-4H-pyrazolo[5,1-c][1,4]oxazin-2-amine] was tested, and the IC50 was < 100 nM.
For `CC(C)n1cc(Nc2nc(C3CCCCC3)cn3ncnc23)cn1` [E.1.1, 6-cyclohexyl-N-(1-isopropyl-1H-pyrazol-4-yl)-[1,2,4]triazolo[1,5-a]pyrazin-8-amine], the IC50 was < 100 nM.
For `CN1CCC(n2cc(Nc3nc(C4CCCCC4)cn4ncnc34)cn2)CC1` [Example 14, 6-cyclohexyl-N-(1-(1-methylpiperidin-4-yl)-1H-pyrazol-4-yl)-[1,2,4]triazolo[1,5-a]pyrazin-8-amine], the IC50 was < 100 nM.
`Cn1cc(Nc2nc([C@@H]3CCC[C@@H](O)C3)cn3ncnc23)cn1` (single isomer, unassigned) [Example 10] was tested, and the IC50 was < 100 nM.
For `C[C@@H]1C[C@@H](n2cc(Nc3nc(C4CCCCC4)cn4ncnc34)cn2)C[C@H](C)N1` [Example 17, 6-cyclohexyl-N-(1-((2R,4S,6S)-2,6-dimethylpiperidin-4-yl)-1H-pyrazol-4-yl)-[1,2,4]triazolo[1,5-a]pyrazin-8-amine], the IC50 was < 100 nM.
For `c1nc2c(Nc3cnn(C4CCOCC4)c3)nc(C3CCCCC3)cn2n1` [A.1.2, 6-cyclohexyl-N-(1-(tetrahydro-2H-pyran-4-yl)-1H-pyrazol-4-yl)-[1,2,4]triazolo[1,5-a]pyrazin-8-amine], the IC50 was < 100 nM.
`Cn1cc(Nc2nc([C@H]3CC[C@H](C)CC3)cn3ncnc23)cn1` [E.1.3] was tested, and the IC50 was < 100 nM.
For `O[C@H]1CCC[C@H](n2cc(Nc3nc(C4CCCCC4)cn4ncnc34)cn2)C1` [G.1.1], the IC50 was < 100 nM.
With `Cn1cc(Nc2nc(C3CCCCC3)cn3ncnc23)cn1` [E.1.10, 6-cyclohexyl-N-(1-methyl-1H-pyrazol-4-yl)-[1,2,4]triazolo[1,5-a]pyrazin-8-amine] the IC50 was < 100 nM.
In the case of `O=C(O)[C@H]1CC[C@@H](n2cc(Nc3nc(C4CCCCC4)cn4ncnc34)cn2)CC1` [Example 16, cis-4-(4-((6-cyclohexyl-[1,2,4]triazolo[1,5-a]pyrazin-8-yl)amino)-1H-pyrazol-1-yl)cyclohexanecarboxylic acid], the IC50 is reported as < 100 nM.
With `O[C@@H]1CCC[C@@H](n2cc(Nc3nc(C4CCCCC4)cn4ncnc34)cn2)C1` [G.1.2] the IC50 was < 100 nM.
For `Cn1cc(Nc2nc([C@H]3CC[C@@H](C)CC3)cn3ncnc23)cn1` [E.1.4], the IC50 was < 100 nM.
With `c1nc2c(Nc3cnn(C4CCNCC4)c3)nc(C3CCCC3)cn2n1` [D.1.2, 6-cyclopentyl-N-(1-(piperidin-4-yl)-1H-pyrazol-4-yl)-[1,2,4]triazolo[1,5-a]pyrazin-8-amine] the IC50 was < 100 nM.

Each compound was assayed against BTK (Homo sapiens (Human), UniProt Q06187) (assay: In vitro BTK kinase activity measured by trFRET). Conditions: recombinant human catalytic domain (aa 393-659), 0.01 mM ATP; read-out: Btk enzyme IC50.
Sequence of BTK (Q06187 393-659): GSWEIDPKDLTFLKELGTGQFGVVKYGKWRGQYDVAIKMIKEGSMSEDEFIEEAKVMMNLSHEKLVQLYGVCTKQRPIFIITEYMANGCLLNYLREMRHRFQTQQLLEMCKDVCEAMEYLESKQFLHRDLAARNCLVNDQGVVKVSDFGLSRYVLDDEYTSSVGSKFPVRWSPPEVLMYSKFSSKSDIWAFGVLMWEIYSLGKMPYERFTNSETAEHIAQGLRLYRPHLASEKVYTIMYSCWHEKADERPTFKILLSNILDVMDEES
Type: biochemical
Method: In Vitro BTK Kinase Activity Measured by Time-Resolved Fluorescence Resonance Energy Transfer (trFRET)
as §1, with “The in-house BTK” for “The CSF-1R construct”, “(aa 393-659),” for “(aa 538-910),”, “was expressed in SF9 cells with an N-terminal his tag and purified by immobilized metal affinity chromatography. BTK” for “was purchased from Invitrogen (cat #PV4092). CSF-1R”, “Biotin-(Ahx)-GAEEEIYAAFFA-COOH, 0.4” for “Biotin-(Ahx)-GAEEEIYAAFFA-COOH, 4”, “mM DTT,” for “mM DTI,”, “and 0.01” for “and 0.1”
In the case of `C=CC(=O)N1CCC(c2cn3ncnc3c(Nc3cnn(C)c3)n2)C1` (stereo not drawn) [F.1.22, 1-(3-(8-((1-methyl-1H-pyrazol-4-yl)amino)-[1,2,4]triazolo[1,5-a]pyrazin-6-yl)pyrrolidin-1-yl)prop-2-en-1-one], the IC50 is reported as < 100 nM.
With `C=CC(=O)N1CCC[C@@H](c2cc(Nc3cc4n(n3)CCN(C)C4)c3ncnn3c2)C1` [F.1.40] the IC50 was < 100 nM.
Work on `Cn1ccc(Nc2cc(C3CCN(C#N)C3)cn3ncnc23)n1` (stereo not drawn) [I.1, 3-(8-((1-methyl-1H-pyrazol-3-yl)amino)-[1,2,4]triazolo[1,5-a]pyridin-6-yl)pyrrolidine-1-carbonitrile] yielded an IC50 of 100 to 1000 nM.
In the case of `C=CC(=O)N1CC[C@@H](c2cn3ccnc3c(Nc3ccc4c(c3)NC(=O)CCC4)n2)C1` [F.1.9, (R)-8-((6-(1-acryloylpyrrolidin-3-yl)imidazo[1,2-a]pyrazin-8-yl)amino)-4,5-dihydro-1H-benzo[b]azepin-2(3H)-one], the IC50 is reported as < 100 nM.
For `C=CC(=O)N[C@@H]1CC[C@H](c2cc(Nc3ccc(N4CCOCC4)cn3)c3ncnn3c2)C1` (single isomer, unassigned) [Example 9 (1R,3S)], the IC50 was < 100 nM.
Compound `C=CC(=O)N1CC[C@@H](c2cn3ncnc3c(Nc3cnn(C)c3)n2)C1` (single isomer, unassigned) [Example F1.25] has an IC50 of 1000 to 50000 nM.
`C=CC(=O)N1CCC(c2cc(Nc3ccc(OC)nn3)c3ncnn3c2)C1` (stereo not drawn) [Example 2, 1-(3-(8-(6-Methoxypyridazin-3-ylamino)-[1,2,4]triazolo[1,5-a]pyridin-6-yl)pyrrolidin-1-yl)prop-2-en-1-one trifluoroacetate] showed an IC50 of 100 to 1000 nM.
`C=CC(=O)N1CC[C@@H](c2cc(Nc3ccn(C)n3)c3ncnn3c2)C1` [Example F1.37, (S)-1-(3-(8-((1-methyl-1H-pyrazol-3-yl)amino)-[1,2,4]triazolo[1,5-a]pyridin-6-yl)pyrrolidin-1-yl)prop-2-en-1-one] gave an IC50 of 1000 to 50000 nM.
For `C=CC(=O)N1CC[C@H](c2cn3ccnc3c(Nc3ccc4c(c3)NC(=O)CCC4)n2)C1` [F.1.10, (S)-8-((6-(1-acryloylpyrrolidin-3-yl)imidazo[1,2-a]pyrazin-8-yl)amino)-4,5-dihydro-1H-benzo[b]azepin-2(3H)-one], the IC50 was 100 to 1000 nM.
For `C=CC(=O)N1CC(c2cc(Nc3cc4n(n3)CCOC4)c3ncnn3c2)C1` [F.1.42], the IC50 was < 100 nM.
In the case of `C=CC(=O)N[C@@H]1CC[C@H](c2cc(Nc3cc4n(n3)CCOC4)c3ncnn3c2)C1` (single isomer, unassigned) [Example 8 (1R,3S)], the IC50 is reported as < 100 nM.
`Cn1ccc(Nc2cc([C@H]3CCC[C@H](NC#N)C3)cn3ncnc23)n1` [I.1.4, N—((1S,3S)-3-(8-((1-methyl-1H-pyrazol-3-yl)amino)-[1,2,4]triazolo[1,5-a]pyridin-6-yl)cyclohexyl)cyanamide] was tested, and the IC50 was 100 to 1000 nM.
For `C=CC(=O)N1CC[C@H](c2cn3ncnc3c(Nc3ccc(OC)c(OC)c3)n2)C1` [F.1.11], the IC50 was 100 to 1000 nM.
In the case of `C=CC(=O)N1CCCC(c2cc(Nc3cc4n(n3)CCOC4)c3ncnn3c2)C1` (stereo not drawn) [Example F1.30, 1-(3-(8-((6,7-dihydro-4H-pyrazolo[5,1-c][1,4]oxazin-2-yl)amino)-[1,2,4]triazolo[1,5-a]pyridin-6-yl)piperidin-1-yl)prop-2-en-1-one], the IC50 is reported as 100 to 1000 nM.
With `C=CC(=O)N[C@H]1CC[C@@H](c2cc(Nc3cc4n(n3)CCOC4)c3ncnn3c2)C1` (single isomer, unassigned) [Example 8 (1S,3R)] the IC50 was < 100 nM.
